In patent US9913792B2, “Methods of regulating skin health and appearance with a combination of flavonoid and vitamin B3” (The Procter & Gamble Company, priority 2014, dated 2018):
Several values for one entry are separate records, joined by “and”; a condition that tells them apart may be missing. Identical values can stand only once.

What was measured:
[1] = test system: Human dermal fibroblasts; test: Extracellular acidification rate (ECAR) of fibroblasts after hydrogen peroxide challenge; type: cell-based
Procedure: The effect of a combination of a flavonoid compound, a vitamin B3 compound, and a hydrolyzed silk protein on cellular energy production was assessed by measuring the extracellular acidification rate (“ECAR”) of fibroblasts after exposure to hydrogen peroxide challenge (FIG. 2). ECAR provides an indirect measure of glycolysis. Treatment with hydrogen peroxide replicates stress induced by UV radiation or chemical pollution and decreases the ECAR. An XF Extracellular Flux Analyzer (Seahorse Bioscience, North Billerica, Mass.) was used to detect extracellular acidification rate. Human dermal fibroblasts were plated at 1×10^5 cells per well in a 96-well plate 24 hours prior to testing. The plate was loaded into the analyzer and equilibrated according to the manufacturer's instructions. Hydrogen peroxide, quercetin (Tocris Bioscience), GSS (BioSpectrum) and niacinamide were loaded into an automated injection port of the XF cartridge plate. The analyzer was programmed to sequentially run a two-minute mix cycle and a four-minute measurement cycle continuously for at least 108 minutes. Data points were collected and recorded by the analyzer. The analyzer was allowed to complete three cycles to establish a baseline value for glycolysis prior to being exposed to the peroxide solution. […]
[…] The ECAR was calculated as a percent of pre-treatment baseline. […]

[2] = test system: human keratinocytes; test: Intracellular ATP levels in keratinocytes stressed with H2O2 (ATP Glo luminescence); type: cell-based; details: for ATP: luminescent counts; for % Control: ATP
Procedure: The effects of a flavonoid compound, a vitamin B3 compound, a hydrolyzed silk protein and a combination thereof, on intracellular ATP levels were assessed. Keratinocytes were cultured in T150 flasks in EpiLife® medium (MEPICFPRF500, Life Technologies, Grand Island, N.Y.) supplemented with human keratinocyte growth supplement (S-001-5, Life Technologies) and 1% penicillin/streptomycin (15140-122, Life Technologies). When the keratinocytes reached about 70% confluency, they were plated on 96-well plates at a density of 20,000 cells/well. The plates were incubated for 24 hours before the experimental stressor (H2O2) and treatment (niacinamide and/or GSS, Crosilk™ 1000, Crosilk™ Liquid, or HerbEx Silk Peptides) were applied.
The 96-well plate was divided into groups of wells in which (1) no stressor or treatment was applied, (2) stressor was applied but no treatment, and (3) stressor and treatment were applied. For the no stressor or treatment group, the culture medium was simply refreshed. In combination experiments, stressor and two treatments were applied. […] The plates were returned to the CO2 incubator for 90 minutes before ATP was measured.
ATP was measured by removing the media from all treatment groups and controls and replacing the media with ATP Glo® reagent (Promega, Madison, Wis.) per the manufacturer's instructions. After 10 minutes of exposure at room temperature, the luminescence was measured using an EnVision® plate reader (Perkin Elmer, Waltham, Mass.). The luminescent counts that were the output from the measurement were directly proportional to the ATP levels in the cells.
Replicates of each treatment group were averaged together and standard p-value calculations were used (2-sided, equal variance) to calculate significance. In cases where two treatments appeared to synergistically enhance ATP levels, the observed results were compared to the sum of the individual treatment groups to determine significance. The ATP levels measured following treatment are provided below.

[3] = 250 uM Niacinamide + 880 uM H202

Compound | ECAR as percent of pre-treatment baseline ([1]; 1.75 mM hydrogen peroxide, 3% niacinamide alone) | ATP [2, 3] | ATP ([2]; 0.05% Niacinamide + 800 uM H202, 90 minutes) | % Control [2, 3] [%] | % Control ([2]; 0.05% Niacinamide + 800 uM H202) [%] | rate of glycolysis (ECAR) in stressed cells ([1]; 1.5 mM hydrogen peroxide, 15 uM quercetin, 90 minutes following treatment (FIG. 1))
NC(=O)c1cccnc1 [Niacinamide, niacinamide] | provided a protective effect and increased the ECAR | 85645 and 75045 and 80345 | 185268 | 29.5 | 43.3 | –
O=c1c(O)c(-c2ccc(O)c(O)c2)oc2cc(O)cc(O)c12 [Quercetin, 2-(3,4-dihydroxyphenyl)-3,5,7-trihydroxy-4H-chromen-4-one] | – | – | – | – | – | significantly increase the rate of glycolysis
